Consider 1 substance from patent US20200179488A1, “Secretin Receptor Agonists to Treat Diseases or Disorders of Energy Homeostasis” (Technische Universität München, priority 2016, published 2020).

For assay [1], the system named is UCP1 knockout mice. Kind of assay: Food intake on refeeding of fasted Ucp1 knockout mice. It is filed as in vivo, Mus musculus. The note with it: fasted 18 h, 5 nmol i.p., 4 hours of refeeding, compared to wildtype (FIG. 8). As to the method: For the measurement of food intake, a feeding-drinking-activity (FDA) device was used (TSE Systems, Bad Homburg/Germany). During the measurement mice were single-housed in type-III cages. Mice were habituated to the new cage environment and received every morning at 10 a.m. a single daily intraperitoneal (i.p.) PBS-injection for four days ahead of the experiment start. The body weight of the mice was measured every day. On day four day of habituation the food was removed from the cages at 5 p.m., and the mice were food deprived over night with ad libitum access to water. On the next morning, mice were i.p. injected with either PBS as control or secretin (rat, Tocris, Art Nr 1919). The latter was given in different doses. Subsequently the mice were refed ad libitum while monitoring food intake during the following 72 hours. […] Food intake was calculated from the decrease in feeder weight. The results were exported into a spreadsheet calculation table (Excel, Microsoft) and analyzed with a software package for statistics and graphics (GraphPad Prism 4.0, GraphPad Software, San Diego, USA).
Next to thermogenesis, brown fat has been proposed to function in the thermoregulatory control of feeding. […] Just before refeeding, mice were intra-peritoneally injected with 5 nmol secretin solved in PBS, or PBS as the vehicle control, and food intake was monitored for the following three days.

For assay [2], the system named is UCP1 knockout mice. Kind of assay: Indirect calorimetry, heat production after i.p. injection in UCP1 knockout mice. In kind it is in vivo, Mus musculus. Particulars: 0.5 mg/kg i.p., 27° C., 60 minutes, p=0.482 (FIG. 6B, 6C). As to the method:
Indirect calorimetric measurements in mice were performed using an open flow respirometry system (Phenomaster, TSE Systems, Bad Homburg/Germany). All animals were kept at room temperature or cold-acclimated at 4° C. for 4 days as indicated in the results section. For the gas exchange measurement (O2 consumption and CO2 production) mice were placed individually in metabolic cages (type I, 3 liter volume) without food and water and transferred to a climate cabinet (TPK 600, Feutron, Greiz/Germany). The air was continuously pulled through the cages at a flow rate of 33 l/h. For gas analysis a subsample was dried in a cooling trap and analyzed for gas exchange. Mice in the cabinet were preconditioned to 30° C. and the basal metabolic rate (BMR) in the post-absorptive state was measured between 8:00 a.m.-12:00 p.m. The O2 consumption and CO2 production of each mouse was analyzed every 5 min over a period of 1 min. […] After injection the O2 consumption and CO2 production rate of each mouse was recorded for 45-60 min with high-resolution recordings at 10 sec intervals. […] Respiratory exchange ratios (RER) and heat production (HP) were calculated from the following formula: (RER=CO2 production/O2 consumption) and (HP[mW]=(4.44+1.43*respiratory exchange ratio)*oxygen consumption [ml/h]).

The test system of assay [3] is UCP1 expression. Kind of assay: UCP1 mRNA expression (qRT-PCR) in primary adipocytes from inguinal white adipose tissue. It is filed as cell-based, Mus musculus. The note with it: 0.1 μM secretin or 0.5 μM isoproterenol, 6 hours, normalized to TFIIB (FIG. 4A). As to the method: (§1) For culturing primary adipocytes male 129S1/SvImJ mice ([…] or UCP1-KO mice and wildtype littermates) at the age of 5-6 weeks were used for the dissection of inguinal and epidydimal white adipose tissue and interscapular brown adipose tissue depots. The tissue was carefully minced and treated with collagenase for 45 min at 37° C. The homogenate was filtered through a 250 μm nylon mesh and centrifuged at 500 g to collect the stromal vascular fraction (SVF). The SVF cell pellet was rinsed and seeded into XF96 V3-PS cell culture microplate (Seahorse Bioscience). After reaching confluency, induction medium containing 10% fetal bovine serum (FBS), 0.5 mM isobutylmethylxanthine, 125 nM indomethacin, 1 mM dexamethasone, 850 nM insulin and 1 nM T3 was added. […] Respiration was measured on day 7 of differentiation. […] RNA was eluted in 50 μl nuclease-free water and RNA concentration was determined spectrophotometrically (Infinite 200 PRO NanoQuant, Tecan, Männedorf/Switzerland). Reverse transcription into cDNA was performed with 500 ng RNA in a final volume of 10 μl (Quantitect Reverse Transcription Kit, Quiagen, Hilden/Germany). qRT-PCR was conducted on 384 well plates in a total volume of 12.5 μl comprising 6.25 μl SensiMix SYBR No-ROX (Bioline, London/UK), 250 nM forward and reverse primers, and 1 μl template cDNA (LightCycler 480 System, Roche Diagnostics, Rotkreuz/Switzerland). […]
In general terms: In qPCR the cycle at which signal appears reflects the starting amount.

The test system of assay [4] is UCP1 expression. Description: UCP1 mRNA expression (qRT-PCR) in primary adipocytes from interscapular brown adipose tissue. In kind it is cell-based, Mus musculus. Particulars: 0.1 μM secretin or 0.5 μM isoproterenol, 6 hours, normalized to TFIIB (FIG. 4B). As to the method: as §1

As to secretin, the “refeeding food intake in Ucp1 knockout mice” value in the assay on UCP1 knockout mice [1] is reported as “did not inhibit refeeding”. Further, the “heat production and its AUC versus PBS” value in the assay on UCP1 knockout mice [2] is reported as “no difference”. Besides, in the assay on UCP1 expression [3], the “UCP1 mRNA expression in white adipocytes versus PBS” value is given as “increased the expression of UCP1”. The “UCP1 mRNA expression in brown adipocytes versus PBS” value with UCP1 expression [4] was “significantly increased the expression of the UCP1 gene”.
